Laboratory results published in patent publication US9233110B2, “Protein nanocarriers for topical delivery” (priority 2008, dated 2016).

Key:
[1] = cited from earlier work
porcine dermatomed skin = test: Skin penetration of rhodamine 123 (fluorescence and confocal microscopy); format: in vitro ADME; conditions: 10 μg rhodamine 123 equivalent, 6 hours, cryosections
Experimental: For stratum corneum (SC) 0-20 μm and for epidermis 20-100 μm XZ optical sections from confocal microscopic images were used for quantifying the fluorescence pixels. The nanoparticles were prepared using the method described in Table 8-1.
Later the skin was sectioned with cryotome and observed under a fluorescent microscope.

[2] = in words; cited from earlier work
skin = conditions: Cornwell and Barry 1993; cited from earlier work

For COC(=O)c1ccccc1-c1c2ccc(=N)cc-2oc2cc(N)ccc12.Cl [Rhodamine 123], the “Log P” value [1] is listed as 1.2 and the penetration into skin (porcine dermatomed skin) is listed as “restricted to the top layer of skin (SC)”.
In the case of O=c1[nH]cc(F)c(=O)[nH]1 [5-Fluorouracil (5-FU), 5-Fluorouracil], the solubility in water [2] is listed as “partially soluble in cold water” and the skin permeability (skin) is listed as “poorly permeable through skin”.
